Laboratory results: patent publication US6355619B1, “Peptide tumor cell growth inhibitors” (Board of Regents, The University of Texas System, priority 1996, dated 2002)
Where no end group is shown, it is not given here. [ ]: non-standard residue; d: D form.

These substances were tested on IL-8 receptors on neutrophils (assay: Inhibition of 125I-labeled IL-8 binding to human neutrophils). Details: not given.
Method: Therefore, in pursuing this aim, the present inventors assayed various other peptide compositions for IL-8 inhibitory activity by screening a library of 400 groups of hexapeptides. In these screening assays, ^125I-labeled interleukin-8 (10^−12 M) was mixed with 100 μM peptide, then added to neutrophils and incubated at 4° C. for 90 min. The bound radioactivity was separated from unbound by centrifugation through a dense cushion of a mixture of paraffin and silicon oils and the ^125I bound to neutrophils was counted in a gamma radiation spectrometer, allowing the results to be expressed as the percent of IL-8 binding which was inhibited.
The use of human subjects for acquisition of neutrophils was approved by the Institutional Review Board for human experimentation. For the preparation of neutrophils, human blood was anticoagulated with heparin for enzyme release studies and with 0.33% sodium citrate for other studies. For chemotactic and enzyme release studies neutrophils were separated by dextran sedimentation and erythrocyte lysis by the method of Boyum (Kohler and Milstein, 1975). For binding studies and cytotoxic studies, the neutrophils were further purified in gradients of Percoll (Pharmacia Fine Chemicals, Piscataway, N.J.) to a purity of 90-93% (Kohler and Milstein, 1975).
Recombinant human IL-8 (72 amino acids; Pepro Tech Inc., Rocky Hill, N.J.) was radioactively labeled with ^125I by the chloramine T method of Hunter and Greenwood (Hunter and Greenwood, 1962). Binding studies were performed according to Besemer et al. (1989), as follows: Neutrophils in phosphate buffered saline pH 7.4 (PBS) containing 0.1% bovine serum albumin (BSA) were incubated with labeled ligand in the presence or absence of the peptide being tested for 90 min at 4° C. to reach equilibrium and then centrifuged at 12,000×g for 3 min in Beckman B microfuge (Beckman Instruments, Fullerton, Calif.), through a cushion consisting of a mixture of paraffin oil Fisher Scientific, Fair Lawn, N.J.) and silicon oil (Serva Co., N.Y., N.Y.). The pellet and supernatant were then counted in a gamma radiation spectrometer. The non-specific binding was estimated to measure the binding in the presence of 100-fold excess of non-labeled ligand. The binding constants were calculated using the computer programs Lundon I and Lundon II.
In these studies, a screening for inhibition was carried out at 100 μM concentration of the peptide being tested, with a 10^−12 M concentration of IL-8. In the first series of studies, twenty peptides were synthesized with the carboxyl-terminal residue of RRWWCX (SEQ ID NO:23) being changed to each of the standard protein amino acids in turn.
“Arg Arg Trp Trp Cys Asp (Ac-RRWWCD; also: D-amino acids, positions not given here)” was tested, and the “ability to inhibit IL-8 binding to neutrophils” value (“ability to inhibit IL-8 binding” for short) was “only minimally active”.
In the case of “Ac-KELRCQ-NH2 [IL-8 homologue peptide, reference compound]”, the “ability to inhibit IL-8 binding” value is reported as “None of these peptides had the ability to inhibit IL-8 binding”.
For “Arg Arg Trp Trp Cys Arg Cys (Ac-[dR][dR][dW][dW][dC][dR][dC]-NH2; not fully specified; printed as Arg Arg Trp Trp Cys Arg Cys; cysteine pairing not given here) [rrwwcrc]”, the “potency as inhibitor relative to Ac-rrwwcr-NH2” value was “almost four times as potent”.
With ELRSQSIKTY [reference compound] the “ability to inhibit IL-8 binding” value was “None of these peptides had the ability to inhibit IL-8 binding”.
With ELRMQMIKTY [reference compound] the “ability to inhibit IL-8 binding” value was “None of these peptides had the ability to inhibit IL-8 binding”.
With “GWRRWWCDAVLY [segment of cell surface glycoprotein CD11c precursor, human leukocyte adhesion receptor p150,95 alpha chain, reference compound]” the “ability to inhibit IL-8 binding” value was “lack of activity”.
“ELRCQCIKTY [IL-8 homologue including the C-X-C motif, reference compound]” was tested, and the “ability to inhibit IL-8 binding” value was “None of these peptides had the ability to inhibit IL-8 binding”.

Same assay, conditions: 10 μM peptide (FIG. 9)
In the case of “Arg Arg Trp Trp Cys Arg Cys (Ac-[dR][dR][dW][dW][dC][dR][dC]-NH2; not fully specified; printed as Arg Arg Trp Trp Cys Arg Cys; cysteine pairing not given here) [rrwwcrc]”, the “inhibition of IL-8 binding to neutrophils” value is reported as 80%.

Same assay, conditions: 20 μM peptide
RRWWCN was tested, and the “IL-8 binding inhibition at lower peptide concentration (FIG. 1)” value was “did indeed exhibit certain inhibitory properties”.

Same assay, conditions: 100 μM peptide, 10^−12 M IL-8; hexamer RRWWCX series, first screen
In the case of RRWWCA, the “% INHIB. (IL-8 binding to neutrophils)” value is reported as 51.9%.
With RRWWCV the “% INHIB. (IL-8 binding to neutrophils)” value was 81.1%.
For RRWWCE, the “% INHIB. (IL-8 binding to neutrophils)” value was 17.1%.
In the case of “Arg Arg Trp Trp Cys Asp (Ac-RRWWCD; also: D-amino acids, positions not given here)”, the “% INHIB. (IL-8 binding to neutrophils)” value is reported as 11.8%.
For RRWWCH, the “% INHIB. (IL-8 binding to neutrophils)” value was 87.9%.
For RRWWCT, the “% INHIB. (IL-8 binding to neutrophils)” value was 88.4%.
In the case of RRWWCP, the “% INHIB. (IL-8 binding to neutrophils)” value is reported as 88.3%.
RRWWCF was tested, and the “% INHIB. (IL-8 binding to neutrophils)” value was 80.2%.
In the case of “RRWWCC (cysteine pairing not given here)”, the “% INHIB. (IL-8 binding to neutrophils)” value is reported as 75.1%.
In the case of RRWWCN, the “% INHIB. (IL-8 binding to neutrophils)” value is reported as −12.0%.
With RRWWCQ the “% INHIB. (IL-8 binding to neutrophils)” value was 19.2%.
RRWWCM was tested, and the “% INHIB. (IL-8 binding to neutrophils)” value was 69.0%.
RRWWCY was tested, and the “% INHIB. (IL-8 binding to neutrophils)” value was 77.9%.
RRWWCL was tested, and the “% INHIB. (IL-8 binding to neutrophils)” value was 86.9%.
For RRWWCW, the “% INHIB. (IL-8 binding to neutrophils)” value was 66.4%.
For RRWWCI, the “% INHIB. (IL-8 binding to neutrophils)” value was 45.8%.
With RRWWCK the “% INHIB. (IL-8 binding to neutrophils)” value was 110.3%.
For RRWWCG, the “% INHIB. (IL-8 binding to neutrophils)” value was 86.8%.
In the case of RRWWCS, the “% INHIB. (IL-8 binding to neutrophils)” value is reported as 79.3%.

Same assay, conditions: first set of heptamer studies, D-amino acid RRWWCRX series; methodology of Example I
In the case of “Arg Arg Trp Trp Cys Arg Phe ([dR][dR][dW][dW][dC][dR][dF]) [rrwwcrf]”, the “% INHIB. (IL-8 binding to neutrophils)” value is reported as 105.6%.
“Arg Arg Trp Trp Cys Arg Gly ([dR][dR][dW][dW][dC][dR]G) [rrwwcrg]” was tested, and the “% INHIB. (IL-8 binding to neutrophils)” value was 108.0%.
With “Arg Arg Trp Trp Cys Arg His ([dR][dR][dW][dW][dC][dR][dH]) [rrwwcrh]” the “% INHIB. (IL-8 binding to neutrophils)” value was 107.0%.
In the case of “Arg Arg Trp Trp Cys Arg Leu ([dR][dR][dW][dW][dC][dR][dL]) [rrwwcrl]”, the “% INHIB. (IL-8 binding to neutrophils)” value is reported as 99.1%.
“Arg Arg Trp Trp Cys Arg Asn ([dR][dR][dW][dW][dC][dR][dN]) [rrwwcrn]” was tested, and the “% INHIB. (IL-8 binding to neutrophils)” value was 110.8%.
“Arg Arg Trp Trp Cys Arg Gln ([dR][dR][dW][dW][dC][dR][dQ]) [rrwwcrq]” was tested, and the “% INHIB. (IL-8 binding to neutrophils)” value was 89.2%.
“Arg Arg Trp Trp Cys Arg Arg ([dR][dR][dW][dW][dC][dR][dR]) [rrwwcrr]” was tested, and the “% INHIB. (IL-8 binding to neutrophils)” value was 102.8%.
“Arg Arg Trp Trp Cys Arg Trp ([dR][dR][dW][dW][dC][dR][dW]) [rrwwcrw]” was tested, and the “% INHIB. (IL-8 binding to neutrophils)” value was 106.3%.
With “Arg Arg Trp Trp Cys Arg Val ([dR][dR][dW][dW][dC][dR][dV]) [rrwwcrv]” the “% INHIB. (IL-8 binding to neutrophils)” value was 89.2%.
For “Arg Arg Trp Trp Cys Arg Asp ([dR][dR][dW][dW][dC][dR][dD]) [rrwwcrd]”, the “% INHIB. (IL-8 binding to neutrophils)” value was 107.0%.
“Arg Arg Trp Trp Cys Arg Ala ([dR][dR][dW][dW][dC][dR][dA]) [rrwwcra]” was tested, and the “% INHIB. (IL-8 binding to neutrophils)” value was 95.3%.
“Arg Arg Trp Trp Cys Arg Cys (Ac-[dR][dR][dW][dW][dC][dR][dC]-NH2; not fully specified; printed as Arg Arg Trp Trp Cys Arg Cys; cysteine pairing not given here) [rrwwcrc]” was tested, and the “% INHIB. (IL-8 binding to neutrophils)” value was 107.7%.
“Arg Arg Trp Trp Cys Arg Thr ([dR][dR][dW][dW][dC][dR][dT]) [rrwwcrt]” was tested, and the “% INHIB. (IL-8 binding to neutrophils)” value was 56.3%.
“Arg Arg Trp Trp Cys Arg Ser ([dR][dR][dW][dW][dC][dR][dS]) [rrwwcrs]” was tested, and the “% INHIB. (IL-8 binding to neutrophils)” value was 70.4%.
With “Arg Arg Trp Trp Cys Arg Ile ([dR][dR][dW][dW][dC][dR][dI]) [rrwwcri]” the “% INHIB. (IL-8 binding to neutrophils)” value was 93.9%.
With “Arg Arg Trp Trp Cys Arg Tyr ([dR][dR][dW][dW][dC][dR][dY]) [rrwwcry]” the “% INHIB. (IL-8 binding to neutrophils)” value was 85.4%.
In the case of “Arg Arg Trp Trp Cys Arg Met ([dR][dR][dW][dW][dC][dR][dM]) [rrwwcrm]”, the “% INHIB. (IL-8 binding to neutrophils)” value is reported as 96.2%.
With “Arg Arg Trp Trp Cys Arg Glu ([dR][dR][dW][dW][dC][dR][dE]) [rrwwcre]” the “% INHIB. (IL-8 binding to neutrophils)” value was 99.1%.
“Arg Arg Trp Trp Cys Arg Lys ([dR][dR][dW][dW][dC][dR][dK]) [rrwwcrk]” was tested, and the “% INHIB. (IL-8 binding to neutrophils)” value was 113.1%.
“Arg Arg Trp Trp Cys Arg Pro ([dR][dR][dW][dW][dC][dR][dP]) [rrwwcrp]” was tested, and the “% INHIB. (IL-8 binding to neutrophils)” value was 87.3%.

Same assay, conditions: lower peptide concentration (FIG. 9)
“Arg Arg Trp Trp Cys Arg Cys (Ac-[dR][dR][dW][dW][dC][dR][dC]-NH2; not fully specified; printed as Arg Arg Trp Trp Cys Arg Cys; cysteine pairing not given here) [rrwwcrc]” was tested, and the “more effective than the next best heptamer peptide” value was roughly 56%.

Same assay, conditions: synthetic peptides, standard assay (Table 6)
In the case of “Ac-KELRCQ-NH2 [IL-8 homologue peptide, reference compound]”, the “% Binding Inhibition (IL-8 binding to neutrophils)” value (from here on “% Binding Inhibition”) is reported as −0.4 ± 11.8%.
For ELRSQSIKTY [reference compound], the “% Binding Inhibition” value was 5.8 ± 3.9%.
In the case of ELRMQMIKTY [reference compound], the “% Binding Inhibition” value is reported as −6.9 ± 3.0%.
With “GWRRWWCDAVLY [segment of cell surface glycoprotein CD11c precursor, human leukocyte adhesion receptor p150,95 alpha chain, reference compound]” the “% Binding Inhibition” value was −12.9 ± 2.9%.
For “ELRCQCIKTY [IL-8 homologue including the C-X-C motif, reference compound]”, the “% Binding Inhibition” value was 7.6 ± 2.1%.

These substances were tested against IL-8 receptors on human neutrophils (human) (assay: inhibition of 125I-IL-8 (10^-12 M) binding to human neutrophils, peptide 100 µM). Details: not given.
With RRWWCP (peptide) the % INHIB. was 88.3%.
Substance RRWWCI (peptide) has a % INHIB. of 45.8%.
In the case of RRWWCA (peptide), the % INHIB. is reported as 51.9%.
Substance RRWWCW (peptide) has a % INHIB. of 66.4%.
For RRWWCM (peptide), the % INHIB. was 69%.
In the case of RRWWCQ (peptide), the % INHIB. is reported as 19.2%.
With RRWWCG (peptide) the % INHIB. was 86.8%.
RRWWCC (peptide) showed a % INHIB. of 75.1%.
Substance RRWWCK (peptide) has a % INHIB. of 110%.
Work on RRWWCS (peptide) yielded a % INHIB. of 79.3%.
For RRWWCT (peptide), the % INHIB. was 88.4%.
Work on RRWWCD (peptide) yielded a % INHIB. of 11.8%.
With RRWWCN (peptide) the % INHIB. was -12%.
For RRWWCH (peptide), the % INHIB. was 87.9%.
RRWWCY (peptide) was tested, and the % INHIB. was 77.9%.
Work on RRWWCE (peptide) yielded a % INHIB. of 17.1%.
RRWWCV (peptide) gave a % INHIB. of 81.1%.
With RRWWCL (peptide) the % INHIB. was 86.9%.
Work on RRWWCF (peptide) yielded a % INHIB. of 80.2%.

What follows are substances tested against IL-8 receptors on human neutrophils (human) (assay: inhibition of 125I-IL-8 binding to human neutrophils, method of Example I; D-amino acid heptamer series). Details: not given.
In the case of rrwwcrm (peptide), the % INHIB. is reported as 96.2%.
For rrwwcrs (peptide), the % INHIB. was 70.4%.
rrwwcrd (peptide) showed a % INHIB. of 107%.
Work on rrwwcrg (peptide) yielded a % INHIB. of 108%.
rrwwcrt (peptide) showed a % INHIB. of 56.3%.
rrwwcrp (peptide) was tested, and the % INHIB. was 87.3%.
rrwwcrf (peptide) was tested, and the % INHIB. was 106%.
rrwwcrn (peptide) was tested, and the % INHIB. was 111%.
Substance rrwwcri (peptide) has a % INHIB. of 93.9%.
rrwwcrw (peptide) was tested, and the % INHIB. was 106%.
